Active and inactive are the calls of the source. The calls are words filed in the database; no cut-off is given here.
Tests used:
[1] = Displacement of [3H]-flunitrazepam from rat brain GABA-A receptor benzodiazepine site after 20 mins by liquid scintillation counting
[2] = Drug level in human liver microsomes treated with 20 uM of zolpidem preincubated for 15 mins followed by NADPH addition measured after 60 mins by UPLC-MS/MS analysis; format: ADME; settings: 1 h
[3] = test system: HepG2; experiment: Hepatotoxicity in human HepG2 cells assessed as intracellular ATP level after 48 hrs by luminescence based ATP detection assay; format: toxicity, cell-based; settings: hepg2, 48 h
[4] = test system: HepG2; experiment: Hepatotoxicity in human HepG2 cells assessed as cell membrane damage after 48 hrs by luminescence assay; format: toxicity, cell-based; settings: hepg2, 48 h
[5] = test system: HepG2; experiment: Hepatotoxicity in human HepG2 cells assessed as intracellular ATP level after 24 hrs by luminescence based ATP detection assay; format: toxicity, cell-based; settings: hepg2, 24 h
[6] = test system: HepG2; experiment: Hepatotoxicity in human HepG2 cells assessed as loss of mitochondrial membrane potential after 24 hrs by JC-1 staining based fluorescence assay; format: toxicity, cell-based; settings: hepg2, 24 h
[7] = target: T1, GABA-A receptor; alpha-1/beta-2/gamma-2 (Homo sapiens, UniProt P14867+P18507+P47870); experiment: Positive allosteric modulation of human recombinant GABA-A receptor alpha1beta2gamma2 expressed in HEK293 cells assessed as potentiation of GABA induced chloride currents treated every 60 secs measured for 7 secs by electrophysiological method; format: cell-based
T1 sequence (P14867 whole entry): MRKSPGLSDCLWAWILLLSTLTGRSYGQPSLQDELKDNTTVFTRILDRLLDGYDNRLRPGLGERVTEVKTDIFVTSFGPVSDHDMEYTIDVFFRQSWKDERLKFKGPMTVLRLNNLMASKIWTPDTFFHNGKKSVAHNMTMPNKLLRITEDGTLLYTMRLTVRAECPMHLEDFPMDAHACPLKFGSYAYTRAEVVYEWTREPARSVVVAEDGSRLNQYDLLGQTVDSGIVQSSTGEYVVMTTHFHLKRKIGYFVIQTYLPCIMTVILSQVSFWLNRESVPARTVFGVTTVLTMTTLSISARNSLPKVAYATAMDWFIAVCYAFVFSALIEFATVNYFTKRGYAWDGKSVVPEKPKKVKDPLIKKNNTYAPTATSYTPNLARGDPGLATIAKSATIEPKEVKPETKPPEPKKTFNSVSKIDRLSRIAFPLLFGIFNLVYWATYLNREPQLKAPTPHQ
T1 sequence (P47870 whole entry): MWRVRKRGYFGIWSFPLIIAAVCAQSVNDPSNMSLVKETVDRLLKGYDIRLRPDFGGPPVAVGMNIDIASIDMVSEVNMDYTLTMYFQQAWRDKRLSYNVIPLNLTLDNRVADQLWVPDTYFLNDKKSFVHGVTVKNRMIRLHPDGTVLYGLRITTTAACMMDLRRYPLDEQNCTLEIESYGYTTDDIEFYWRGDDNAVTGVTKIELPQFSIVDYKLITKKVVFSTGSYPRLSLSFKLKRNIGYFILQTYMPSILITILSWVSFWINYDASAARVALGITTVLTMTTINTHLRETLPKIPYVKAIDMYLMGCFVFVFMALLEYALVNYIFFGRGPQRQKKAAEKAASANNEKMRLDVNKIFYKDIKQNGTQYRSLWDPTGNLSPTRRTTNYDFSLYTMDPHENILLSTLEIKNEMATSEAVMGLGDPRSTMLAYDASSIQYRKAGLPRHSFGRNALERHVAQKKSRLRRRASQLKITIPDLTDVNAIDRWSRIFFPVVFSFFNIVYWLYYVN
T1 sequence (P18507 whole entry): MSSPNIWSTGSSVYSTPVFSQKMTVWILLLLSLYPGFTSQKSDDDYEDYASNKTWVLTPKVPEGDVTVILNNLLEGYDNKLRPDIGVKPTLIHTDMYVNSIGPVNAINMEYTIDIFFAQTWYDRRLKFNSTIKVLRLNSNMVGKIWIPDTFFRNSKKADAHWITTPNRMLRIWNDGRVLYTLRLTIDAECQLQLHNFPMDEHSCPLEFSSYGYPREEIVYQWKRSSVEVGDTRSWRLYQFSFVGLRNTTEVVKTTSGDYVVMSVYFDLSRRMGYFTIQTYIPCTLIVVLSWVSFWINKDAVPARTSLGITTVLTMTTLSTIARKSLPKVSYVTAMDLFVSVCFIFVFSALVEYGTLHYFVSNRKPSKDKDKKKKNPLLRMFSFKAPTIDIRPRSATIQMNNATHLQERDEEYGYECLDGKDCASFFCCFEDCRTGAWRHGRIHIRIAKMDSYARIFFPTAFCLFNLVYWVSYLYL

[8] = test system: HepG2; experiment: Hepatotoxicity in human HepG2 cells assessed as decrease in cell viability after 48 hrs by PrestoBlue assay; format: toxicity, cell-based; settings: hepg2, 48 h
[9] = target: T2, GABA-A receptor; alpha-1/beta-2/gamma-2 (Homo sapiens) (UniProt P14867+P47870+P18507); experiment: Positive allosteric modulation of human recombinant GABA-A receptor alpha1beta2gamma2 expressed in HEK293 cells assessed as potentiation of GABA induced chloride currents at 1 uM treated every 60 secs measured for 7 secs by electrophysiological method; format: cell-based
[10] = target: T2, GABA-A receptor; alpha-1/beta-2/gamma-2 (Homo sapiens); experiment: Positive allosteric modulation of human recombinant GABA-A receptor alpha1beta2gamma2 expressed in HEK293 cells assessed as potentiation of GABA induced chloride currents at 1 uM treated every 60 secs measured for 7 secs by electrophysiological method relative to GABA; format: cell-based
[11] = test system: HepG2; experiment: Hepatotoxicity in human HepG2 cells assessed as decrease in cell viability after 24 hrs by PrestoBlue assay; format: toxicity, cell-based; settings: hepg2, 24 h
[12] = test system: HepG2; experiment: Hepatotoxicity in human HepG2 cells assessed as cell membrane damage after 24 hrs by luminescence assay; format: toxicity, cell-based; settings: hepg2, 24 h
[13] = Metabolic stability in human liver microsomes at 20 uM preincubated for 15 mins followed by NADPH addition measured after 60 mins by UPLC-MS/MS analysis; format: ADME; settings: 1 h

CN(C)C(=O)Cc1c(-c2ccc(F)cc2F)nc2ccc(C(F)(F)F)cn12
Ki [1]: 830 nM

CN(C)C(=O)Cc1c(-c2ccc(F)c(F)c2)nc2ccc(F)cn12
Ki [1]: 57.5 to 58 nM

Cc1ccc2nc(-c3ccc(CO)cc3)c(CC(=O)N(C)C)n2c1
Drug metabolism [2]: Metabolite_Detected

CN(C)C(=O)Cc1c(-c2cccc(F)c2)nc2ccc(C(F)(F)F)cn12
Ki [1]: 730 nM

CN(C)C(=O)Cc1c(-c2ccccc2)nc2ccc(F)cn12
Ki [1]: 130 nM

CN(C)C(=O)Cc1c(-c2ccc(F)cc2)nc2ccc(F)cn12
Activity [3]: Non-Toxic | Activity [4]: Non-Toxic | Activity [5]: Non-Toxic | Activity [6]: Non-Toxic | EC50 [7]: 408 nM | Activity [8]: Non-Toxic | Activity [9]: Active | fold change (FC) [10]: 1.8 | Activity [11]: Non-Toxic | Ki [1]: 55.6 to 56 nM | Activity [12]: Non-Toxic | Stability [13]: Stable

CN(C)C(=O)Cc1c(-c2ccc(F)cc2)nc2ccc(C(F)(F)F)cn12
Ki [1]: 510 nM

CN(C)C(=O)Cc1c(-c2ccc(C(F)(F)F)cc2)nc2ccc(C(F)(F)F)cn12
Ki [1]: 487 nM

— ChEMBL document CHEMBL3872231, “Design, synthesis, and biological evaluation of fluorinated imidazo[1,2-a]pyridine derivatives with potential antipsychotic activity” (Eur J Med Chem, 2016)
